Results from ChEMBL document CHEMBL3886271, “Method for selectively inhibiting ACAT1 in the treatment of alzheimer's disease” (2015).

Molecular target: T1, Sterol O-acyltransferase 2 (Homo sapiens, UniProt O75908)
T1 sequence (O75908 whole entry): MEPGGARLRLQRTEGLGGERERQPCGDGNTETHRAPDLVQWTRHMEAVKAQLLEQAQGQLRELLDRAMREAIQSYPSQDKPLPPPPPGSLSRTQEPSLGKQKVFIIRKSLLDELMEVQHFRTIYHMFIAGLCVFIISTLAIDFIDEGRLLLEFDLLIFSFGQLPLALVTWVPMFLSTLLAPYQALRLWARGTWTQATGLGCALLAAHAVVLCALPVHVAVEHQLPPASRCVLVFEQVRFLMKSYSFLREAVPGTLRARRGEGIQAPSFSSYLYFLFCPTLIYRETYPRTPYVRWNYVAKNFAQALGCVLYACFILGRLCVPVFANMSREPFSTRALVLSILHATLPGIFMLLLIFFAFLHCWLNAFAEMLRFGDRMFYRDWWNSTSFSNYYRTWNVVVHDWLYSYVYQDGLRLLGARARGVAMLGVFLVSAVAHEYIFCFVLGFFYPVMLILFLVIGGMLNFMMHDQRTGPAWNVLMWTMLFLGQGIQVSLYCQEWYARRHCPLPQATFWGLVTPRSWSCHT
Test: Inhibition Assay: Methods for assessing the selectively of ACAT1 inhibitors are known in the art and can be based upon any conventional assay including, but not limited to the determination of the half maximal (50%) inhibitory concentration (IC) of a substance (i.e., 50% IC, or IC50), the binding affinity of the inhibitor (i.e., Ki), and/or the half maximal effective concentration (EC50) of the inhibitor for ACAT1 as compared to ACAT2. See, e.g., Lada, et al. (2004) J. Lipid Res. 45:378-386 and U.S. Pat. No. 5,968,749. ACAT1 and ACAT2 proteins that can be employed in such assays are well-known in the art and set forth, e.g., in GENBANK Accession Nos. NP-000010 (human ACAT1) and NP-005882 (human ACAT2). See also U.S. Pat. No. 5,834,283.

SMILES: CC(C)c1cccc(C(C)C)c1NC(=O)CC(=O)C(Cc1ccccc1)Cc1ccc(OC(=O)CCCCCCN2CCCCCC2=O)cc1 (stereo unspecified)
- IC50: 0.53 µM

SMILES: CC(C)c1cccc(C(C)C)c1NC(=O)CC(=O)C(Cc1ccccc1)Cc1ccc(O)cc1 (stereo unspecified)
- IC50: 1.5 µM

SMILES: CCCCCCCC(=O)CNc1cc(-c2ccccc2)nn1-c1ccccc1
- IC50: 53 µM

SMILES: CCCCCCCCCCNc1cc(-c2ccccc2)nn1-c1ccccc1
- IC50: 97 µM

SMILES: CCCCCCCCC(=O)CNc1cc(-c2ccccc2)nn1-c1ccccc1
- IC50: 75 µM

SMILES: CCCC[C@H](C)[C@@H]1CC(=O)N[C@@H](Cc2ccccc2)C(=O)N[C@@H](C)C(=O)N[C@H](CC(C)C)C(=O)O1 [BEAUVERIOLIDE I]
- IC50: 20 µM
